One data set deals with lymphoma. Conditions: single agent; cited from earlier work.
Data set [1] has as its system human peripheral blood mononuclear cells. Conditions: polarized Th1 response; cited from earlier work.
Data set [2] relates to monocytes expressing PD-L1. As to the kind of experiment: Ex vivo treatment of dog white blood cells, PD-L1 on monocytes by flow cytometry. Conditions: 0-1000 uM, 24 hours incubation, autologous serum; in some of the dogs (three healthy, three with cancer). The format is cell-based. The procedure: In this study, white blood cells and serum were isolated from three healthy dogs and three dogs with cancer. Two dogs had osteosarcoma (Cancer_1 and Cancer_2 in FIG. 5) and one dog had melanoma (Cancer_3 in FIG. 5). Isolated white blood cells were grown in culture with autologous dog serum and varying doses of β-alethine (0-1000 uM). After 24 hours of incubation with β-alethine, monocytes were isolated and were examined for PD-L1 expression using flow cytometry analysis and a canine-specific anti-PD-L1 antibody. […] Further is documents cross species activity of BA. Current human clinical trials with immune checkpoint inhibitors also include antibodies antagonistic to PD-L1. Thus, β-alethine could also be used synergistically with anti-PD-L1 therapies.
Background: Flow cytometry measures light scatter and fluorescence of single cells or particles in a stream.

Data set [3] concerns Cloudman melanoma cancer cell line. As to the kind of experiment: Tumor growth with β-alethine, anti-PD-1 or both (concurrent or sequential) in Cloudman melanoma mice. Type of data set: in vivo. Conditions: for tumor growth (tumor size): vs PBS, not statistically significant. The procedure:
After confirming tumor growth, mice were randomized into the treatment groups listed in Table 4. n=10 mice in the Low Dose, High Dose, q14, untreated, and PBS groups; n=5 mice in PD-1 and BLT/PD-1 groups.
Tumor growth was measured 3 times a week. […] In the PBS treated group, there likely was an artificially low reading in the PBS group on day 23. A repeat reading of tumor size at day 25 confirmed the original trajectory. […] In addition, by day 25, the cancers in all these groups were growing at rates similar to the PBS or untreated control.
In order to further examine this dramatic result, long-term immunity after relapse was determined. In the mice treated with three doses of PD-1 alone at days 15, 18, and 21, tumor size increased through day 29 until the average size was almost 50 mm^2. […] At day 29, mice in the single agent anti-PD-1 treated group received a dose of 30 mg/kg β-alethine subcutaneously, and then weekly thereafter. […] Thus, in total, 9 of 10 mice in either the combination treatment group or the anti-PD-1 rescued with β-alethine group had complete regression of their tumors.

In data set [4] the test system is CD4+ or CD8+ T cells that expressed PD-1, Lag3, or Tim3. As to the kind of experiment: Checkpoint inhibitor expression and T cell percentages in blood 48 hours after one s.c. injection of β-alethine in Cloudman melanoma mice. The format is in vivo, DBA mice. The procedure: It was hypothesized that β-alethine could affect checkpoint inhibitors expression in vivo in tumor bearing animals. […] As a baseline, blood from each animal was taken (“Cloudman preBLT”). Mice then were treated with one subcutaneous (s.c.) injection of 30 mg/kg β-alethine. 48 hours after receiving the s.c. injection of β-alethine, blood was taken (“Cloudman postBLT”). […]

For the next data set, the system named is MT-1 tumor xenograft. Conditions: cited from earlier work.
Data set [5] has as its system Cloudman melanoma cancer cell line. Description: Tumor size after s.c. and intratumoral β-alethine in mice with established Cloudman melanoma. The format is in vivo, DBA mice. The procedure: At 38 days after tumor cell injection, the tumors were 17, 25 and 32 mm^2. At 38, 46, and 52 days after tumor cell injection, mice were treated with s.c. injections between the shoulder blades (distal to the tumor) of 30 mg/kg β-alethine in sterile saline (each s.c. injection of β-alethine is indicated by triangles in FIG. 2). Tumor size was monitored after each injection. […] However, the other two mice were then treated with β-alethine at 30 mg/kg intratumorally (i.t.) on day 55 post-tumor cell injection.
Further, when β-alethine was injected directly into the tumors, animals that previously had not responded or not fully responded via s.c. injection now responded, included apparent complete response.

For another data set, the system named is NS-1 mouse myeloma. As to conditions: repeated administration as monotherapy soon after inoculation with relatively low doses of tumor; cited from earlier work.
In a further data set the test system is Cloudman S-91 melanomas. Conditions: melanomas already established; cited from earlier work.
The conditions of data set [6]: in vivo; cited from earlier work.
Another data set has as its system multiple myeloma. Conditions: multiple myeloma (Benson et al., 2012); cited from earlier work.
The mark [7] stands for this setting: Post-, 48 hours after β-alethine s.c.
Setting [8] is: Post-β-alethine, blood 48 hours after one s.c. injection of 30 mg/kg.

Entries after “also recorded” stand apart in the source; their conditions may differ.

`NCCC(=O)NCCSSCCNC(=O)CCN` [β-alethine, 3-amino-N-(2-{[2-(3-aminopropanamido)ethyl]disulfanyl}ethyl)propenamide]: in the data set on lymphoma, the “drug related adverse events” value is recorded as “no local or systemic drug related adverse events; also recorded: no drug-related adverse events” and the “tumor size in lymphoma patients not anergic to recall antigens pre-trial” value is on record as “reduction or stabilization in tumor sized in all patients with lymphoma who were not anergic to recall antigens pre-trial; also recorded: shrinkage or stabilization in all patients with lymphoma who were not anergic to recall antigens pre-trial”. In addition, in data set [1], the IFN-γ production entry is “increased IFN-γ production”; the IL-10 expression entry is reported as “depressed IL-10 expression”; the “T cell activation and proliferation” value is “increased T cell activation and proliferation”. Moreover, in data set [2], the “percentages of monocytes expressing PD-L1” value is listed as “reduced the percentages of monocytes expressing PD-L1”. In addition, the “tumor growth (tumor size)” value in data set [3] (High dose: 30 mg/kg s.c. once a week from day 15) is listed as “delayed tumor growth temporarily”. Moreover, in data set [3] (Low dose: 30 ng/kg s.c. once a week from day 15), the “tumor growth (tumor size)” value was “delayed tumor growth temporarily”. The toxicity entry in data set [3] (low dose or high dose β-alethine alone) is on record as “no obvious toxicity was observed”. The “number of molecule per cell (mean fluorescent intensity MFI) on cells that continued to have checkpoint molecule expression” value in data set [4] (48 hours after one s.c. injection of 30 mg/kg vs before) is recorded as “specific reduction”. Also, the “percentages of CD4 and CD8 T cells expressing PD-1, Lag3, or Tim3” value in [4] (FIG. 1A, 48 hours after one s.c. injection of 30 mg/kg vs before) is “reduced percentages”. Also, in data set [4] (setting [7]), the “% CD8+ of white blood cells” value is listed as 0.9%; the “CD4-Lag3, percentage of cells expressing checkpoint inhibitor” value came out at 2.1%; the “CD4-PD1, percentage of cells expressing checkpoint inhibitor” value was 4.4%; the “CD4-Tim3, percentage of cells expressing checkpoint inhibitor” value is reported as 1.3%. In data set [4] (setting [7]), the “CD8-Lag3, percentage of cells expressing checkpoint inhibitor” value is reported as 0.1%; the “CD8-PD1, percentage of cells expressing checkpoint inhibitor” value worked out at 1.2%; the “CD8-Tim3, percentage of cells expressing checkpoint inhibitor” value stood at 0.2%. In data set [4] (setting [8]), the “CD4-Lag3+ checkpoint inhibitor expression” value was found to be 55 MFI, the “CD4-PD1+ checkpoint inhibitor expression” value worked out at 153 MFI, the “CD4-Tim3+ checkpoint inhibitor expression” value is on record as 93 MFI and the “CD8-Lag3+ checkpoint inhibitor expression” value worked out at 627 MFI. In addition, in [4] (setting [8]), the “CD8-PD1+ checkpoint inhibitor expression” value is 259 MFI and the “CD8-Tim3 checkpoint inhibitor expression” value was found to be 1283 MFI. In the data set with MT-1 tumor xenograft (adjunct to chemotherapy), the “effectiveness of chemotherapy for late stage breast cancer” value is recorded as “increase effectiveness of chemotherapy” and the “toxicity due to the chemotherapy” value is reported as “did not increase toxicity due to the chemotherapy”. In addition, the localized tumor growth entry in the data set with MT-1 tumor xenograft (breast cancer) is listed as “effective in treating localized tumor growth”. The “tumor response of second mouse after intratumoral injection” value in data set [5] (30 mg/kg i.t. on day 55 after s.c. injections, seen on day 66) is reported as “complete regression of the tumor”. Further, the “tumor size of remaining mouse after series of i.t. injections” value in data set [5] (30 mg/kg i.t. on days 55, 68, 82) is listed as “decrease in tumor size”. The “start of tumor regression in the remaining mouse” value in data set [5] (30 mg/kg i.t. on days 55, 68, 82 after s.c. injections) is on record as ~70 day post-tumor cell injection. In [5] (30 mg/kg s.c. at days 38, 46, 52, three mice, at day 56 post-tumor cell injection), the “complete tumor regression after s.c. injections” value is “one of the mice demonstrated a complete tumor regression”. Also, the “local or systemic side effects” value in data set [5] (i.t. injections of 30 mg/kg in the mouse) is given as “not associated with any perceivable local or systemic side effects”. Besides, the survival rates entry in the data set with NS-1 mouse myeloma is reported as “significantly increased survival rates”. In addition, in the data set with Cloudman S-91 melanomas, the percent survival entry is given as “increase the percent survival”. Also, the toxicity in animals entry in [6] is reported as “non-toxic”.
“IPH2101: anti-KIR antibody (Innate Pharma)”: the anti-tumor activity result in the data set on multiple myeloma is listed as “demonstrated anti-tumor activity”.
For “lirlumab: anti-KIR antibody (Innate Pharma)”, the anti-tumor activity result with multiple myeloma is recorded as “demonstrated anti-tumor activity”.

Source of the values: patent publication US11672771B2, “Beta-alethine, immune modulators, and uses thereof” (AxImmune, Inc., priority 2016, dated 2023).
